Earlier results, collected in patent publication US20110160143A1, “Topical Acyl Glutathione Psoriasis Compositions” (priority 2009, published 2011).

System: HIV patients
Conditions: oral administration

In the case of `O=C(O)CCCCC1CCSS1` (stereo not drawn) [alpha-lipoic acid, Alpha-lipoic acid], the glutathione levels is given as “raises glutathione levels” and the safety and tolerability is given as “extremely safe and well tolerated”.
